In patent US6727275B2, “Pyrrolidinone derivatives” (UCB, S.A./N.V., priority 2001, dated 2004):

Target: T1, CCR2 (Homo sapiens, UniProt P41597)
T1 sequence (P41597 1-360 isoform P41597-2): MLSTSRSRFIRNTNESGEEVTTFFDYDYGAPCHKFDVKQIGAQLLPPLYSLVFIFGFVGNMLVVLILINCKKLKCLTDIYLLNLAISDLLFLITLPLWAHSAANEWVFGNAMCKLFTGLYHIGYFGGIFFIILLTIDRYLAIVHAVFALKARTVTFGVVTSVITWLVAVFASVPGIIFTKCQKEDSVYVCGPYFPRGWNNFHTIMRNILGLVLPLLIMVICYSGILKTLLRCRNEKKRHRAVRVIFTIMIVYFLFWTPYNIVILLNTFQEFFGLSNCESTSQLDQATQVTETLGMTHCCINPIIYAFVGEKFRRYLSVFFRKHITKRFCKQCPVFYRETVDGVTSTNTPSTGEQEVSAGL
Experiment: Binding assay: inhibition of 125I-MCP-1 binding to THP-1 cells
Parameters: CCR2 is also expressed in the human monocytic cell line THP-1; endogenous in cells; host or cells: THP-1 (human monocytic cell line), whole cells
Settings: THP-1 cells, 0.1 nM 125I-MCP-1, 1 hr at room temperature; read-out: Inhibition of 125I-MCP-1 binding to THP-1 cells, IC50
Protocol: Antagonism of the CCR2 receptor is determined by a binding assay using the human monocytic cell line THP-1. Cells are suspended in assay buffer (RPMI+1% BSA+25 mM HEPES) at 3×10^6 cells/ml and an aliquot (180 μl) added to a 0.5 ml siliconized Eppendorf tube. […] After incubation for 1 hr at room temperature, the cell suspension is centrifuged through oil and the cell pellets counted to quantitate cell-bound ligand. Nonspecific (NS) binding of radioligand is determined by the addition of 100 nM cold MCP-1. Control binding is determined by the addition of buffer without compound.

| Structure (SMILES) | IC50 |
| --- | --- |
| CCc1cc(N2C(=O)C(O)=C(C(C)=O)C2C2CCCCC2)ccc1Cl (racemic) [Compound 70, 4-acetyl-1-(4-chloro-3-ethylphenyl)-5-cyclohexyl-3-hydroxy-1,5-dihydro-2H-pyrrol-2-one] | ≤ 5 µM |
| CC(=O)C1=C(O)C(=O)N(c2ccc(Cl)cc2F)C1C1CCCC1 (racemic) [Compound 119, 4-acetyl-1-(4-chloro-2-fluorophenyl)-5-cyclopentyl-3-hydroxy-1,5-dihydro-2H-pyrrol-2-one] | ≤ 5 µM |
| CCCC1C(C(C)=O)=C(O)C(=O)N1c1ccc(C)c(Cl)c1 (racemic) [Compound 76, 4-acetyl-1-(3-chloro-4-methylphenyl)-3-hydroxy-5-propyl-1,5-dihydro-2H-pyrrol-2-one] | ≤ 5 µM |
| CC(=O)C1=C(O)C(=O)N(c2c(F)cc(Cl)cc2F)[C@@H]1C1CCCCC1 (stereo in doubt) [Compound 148, (R)-4-acetyl-1-(4-chloro-2,6-difluorophenyl)-5-cyclohexyl-3-hydroxy-1,5-dihydro-2H-pyrrol-2-one] | ≤ 5 µM |
| CC(=O)C1=C(O)C(=O)N(c2ccc(F)cc2)[C@@H]1C1CCCCC1 [Compound 139, (R)-4-acetyl-5-cyclohexyl-1-(4-fluorophenyl)-3-hydroxy-1,5-dihydro-2H-pyrrol-2-one] | ≤ 5 µM |
| CC(=O)C1=C(O)C(=O)N(c2ccc(Br)cc2)C1c1ccc(Br)cc1 (racemic) [Compound 9, 4-acetyl-1,5-bis(4-bromophenyl)-3-hydroxy-1,5-dihydro-2H-pyrrol-2-one] | ≤ 5 µM |
| CC(=O)C1=C(O)C(=O)N(c2ccc(Cl)cc2)C1C1CCCC1 (racemic) [Compound 118, 4-acetyl-1-(4-chlorophenyl)-5-cyclopentyl-3-hydroxy-1,5-dihydro-2H-pyrrol-2-one] | ≤ 5 µM |
| CC(=O)C1=C(O)C(=O)N(c2ccc(F)c(C)c2)C1C1CCCCC1 (racemic) [Compound 64, 4-acetyl-5-cyclohexyl-1-(4-fluoro-3-methylphenyl)-3-hydroxy-1,5-dihydro-2H-pyrrol-2-one] | ≤ 5 µM |
| CSC1=C(O)C(=O)N(c2ccc(Cl)cc2)C1C1CCCCC1 (racemic) [Compound 128, 1-(4-chlorophenyl)-5-cyclohexyl-3-hydroxy-4-(methylthio)-1,5-dihydro-2H-pyrrol-2-one] | ≤ 5 µM |
| CC(=O)C1=C(O)C(=O)N(c2ccc(C)c(Br)c2)C1C1CCCCC1 (racemic) [Compound 73, 4-acetyl-1-(3-bromo-4-methylphenyl)-5-cyclohexyl-3-hydroxy-1,5-dihydro-2H-pyrrol-2-one] | ≤ 5 µM |
| CC(=O)C1=C(O)C(=O)N(c2ccc(Cl)cc2F)[C@@H]1C1CCCC1 [Compound 129, (R)-4-acetyl-1-(4-chloro-2-fluorophenyl)-5-cyclopentyl-3-hydroxy-1,5-dihydro-2H-pyrrol-2-one] | ≤ 5 µM |
| CC(=O)C1=C(O)C(=O)N(Cc2ccccc2)C1C1CCCCC1 (racemic) [Compound 7, 4-acetyl-1-benzyl-5-cyclohexyl-3-hydroxy-1,5-dihydro-2H-pyrrol-2-one] | ≤ 5 µM |
| CC(=O)C1=C(O)C(=O)N(c2ccc(Cl)s2)C1C1CCCCC1 (racemic) [Compound 170, 4-acetyl-1-(5-chloro-2-thienyl)-5-cyclohexyl-3-hydroxy-1,5-dihydro-2H-pyrrol-2-one] | ≤ 5 µM |
| CC(=O)C1=C(S)C(=O)N(c2ccc(Cl)cc2F)C1C1CCCCC1 (racemic) [Compound 169, 4-acetyl-1-(4-chloro-2-fluorophenyl)-5-cyclohexyl-3-sulfanyl-1,5-dihydro-2H-pyrrol-2-one] | ≤ 5 µM |
| CC(=O)C1=C(O)C(=O)N(Cc2ccccc2)C1c1ccco1 (racemic) [Compound 8, 4-acetyl-1-benzyl-5-(2-furyl)-3-hydroxy-1,5-dihydro-2H-pyrrol-2-one] | ≤ 5 µM |
| CC(=O)C1=C(O)C(=O)N(c2c(F)cc(Cl)cc2F)[C@H]1C1CCCCC1 (stereo in doubt) [Compound 147, (S)-4-acetyl-1-(4-chloro-2,6-difluorophenyl)-5-cyclohexyl-3-hydroxy-1,5-dihydro-2H-pyrrol-2-one] | ≤ 5 µM |

| Structure (SMILES) | IC50 |
| --- | --- |
| CC(=O)C1=C(O)C(=O)N(c2ccc3c(c2)CCC3)C1C1CCCCC1 (racemic) [Compound 63, 4-acetyl-5-cyclohexyl-1-(2,3-dihydro-1H-inden-5-yl)-3-hydroxy-1,5-dihydro-2H-pyrrol-2-one] | ≤ 5 µM |
| CC(=O)C1=C(O)C(=O)N(c2ccc(Br)cc2F)C1C1CCCCC1 (racemic) [Compound 142, 4-acetyl-1-(4-bromo-2-fluorophenyl)-5-cyclohexyl-3-hydroxy-1,5-dihydro-2H-pyrrol-2-one] | ≤ 5 µM |
| CCC(CC)C1C(C(C)=O)=C(O)C(=O)N1c1ccc(C)cc1 (racemic) [Compound 13, 4-acetyl-5-(1-ethylpropyl)-3-hydroxy-1-(4-methylphenyl)-1,5-dihydro-2H-pyrrol-2-one] | ≤ 5 µM |
| C=C1CCC(C2C(C(C)=O)=C(O)C(=O)N2c2ccc(Cl)cc2F)CC1 (racemic) [Compound 153, 4-acetyl-1-(4-chloro-2-fluorophenyl)-3-hydroxy-5-(4-methylenecyclohexyl)-1,5-dihydro-2H-pyrrol-2-one] | ≤ 5 µM |
| CCc1ccc(N2C(=O)C(O)=C(C(C)=O)C2C2CCCCC2)cc1 (racemic) [Compound 77, 4-acetyl-5-cyclohexyl-1-(4-ethylphenyl)-3-hydroxy-1,5-dihydro-2H-pyrrol-2-one] | ≤ 5 µM |
| CC(=O)C1=C(O)C(=O)N(c2c(F)cc(Cl)cc2F)C1C1CCCCC1 (racemic) [Compound 120, 4-acetyl-1-(4-chloro-2,6-difluorophenyl)-5-cyclohexyl-3-hydroxy-1,5-dihydro-2H-pyrrol-2-one] | ≤ 5 µM |
| COc1ccc(N2C(=O)C(O)=C(C(C)=O)C2C2CCCCC2)cc1 (racemic) [Compound 14, 4-acetyl-5-cyclohexyl-3-hydroxy-1-(4-methoxyphenyl)-1,5-dihydro-2H-pyrrol-2-one] | ≤ 5 µM |
| CC(=O)C1=C(O)C(=O)N(c2ccc(F)cc2F)C1C1CCCCC1 (racemic) [Compound 62, 4-acetyl-5-cyclohexyl-1-(2,4-difluorophenyl)-3-hydroxy-1,5-dihydro-2H-pyrrol-2-one] | ≤ 5 µM |
| CC(=O)C1=C(O)C(=O)N(c2ccc(Cl)cc2)C1C1CC(C)(C)CC(C)(C)C1 (racemic) [Compound 145, 4-acetyl-1-(4-chlorophenyl)-3-hydroxy-5-(3,3,5,5-tetramethylcyclohexyl)-1,5-dihydro-2H-pyrrol-2-one] | ≤ 5 µM |
| CC(=O)C1=C(O)C(=O)N(c2ccc(C)cc2)C1C1CCCCCC1 (racemic) [Compound 68, 4-acetyl-5-cycloheptyl-3-hydroxy-1-(4-methylphenyl)-1,5-dihydro-2H-pyrrol-2-one] | ≤ 5 µM |
| CC(=O)C1=C(O)C(=O)N(c2ccc(Cl)cc2)C1C1CCC(C)CC1 (racemic) [Compound 150, 4-acetyl-1-(4-chlorophenyl)-3-hydroxy-5-(4-methylcyclohexyl)-1,5-dihydro-2H-pyrrol-2-one] | ≤ 5 µM |
| CC(=O)C1=C(O)C(=O)N(c2ccc(C)cc2)C1C1CCCC1 (racemic) [Compound 56, 4-acetyl-5-cyclopentyl-3-hydroxy-1-(4-methylphenyl)-1,5-dihydro-2H-pyrrol-2-one] | ≤ 5 µM |
| CC(=O)C1=C(N)C(=O)N(c2ccc(C)cc2)C1C1CCCCC1 (racemic) [Compound 61, 4-acetyl-3-amino-5-cyclohexyl-1-(4-methylphenyl)-1,5-dihydro-2H-pyrrol-2-one] | ≤ 5 µM |
| CC(=O)C1=C(O)C(=O)N(c2ccc(F)cc2)[C@@H]1C1CCCC1 [Compound 137, (R)-4-acetyl-5-cyclopentyl-1-(4-fluorophenyl)-3-hydroxy-1,5-dihydro-2H-pyrrol-2-one] | ≤ 5 µM |
| CC(=O)C1=C(O)C(=O)N(c2ccc(C)c(Cl)c2)C1C1CCCCC1 (racemic) [Compound 59, 4-acetyl-1-(3-chloro-4-methylphenyl)-5-cyclohexyl-3-hydroxy-1,5-dihydro-2H-pyrrol-2-one] | ≤ 5 µM |
| CC(=O)C1=C(O)C(=O)N(c2ccc(C)cc2F)C1C1CCCCC1 (racemic) [Compound 54, 4-acetyl-5-cyclohexyl-1-(2-fluoro-4-methylphenyl)-3-hydroxy-1,5-dihydro-2H-pyrrol-2-one] | ≤ 5 µM |
